Measurements as given in patent US20150065416A1, “NOVEL DRUG COMBINATION” (FAB PHARMA SAS, priority 2013, published 2015).
Converted amounts (≈) assume the structure as drawn. Where two headings read alike, the source gives them in different places.

How the values were obtained:
A. baumannii isolates [1] = experiment: Individual antimicrobial susceptibility testing (MIC, broth microdilution, CLSI); format: cell-based, Acinetobacter baumannii; details: for MIC50 / MIC90: Acinetobacter baumannii
Description: In the antimicrobial susceptibility testing 77 isolates of A. baumannii (from 2010) in the following sub-groups were tested: • 22 isolates generally susceptible to antimicrobial agents (“Sus”) • 20 carbapenem-resistant isolates (e.g. “MPM-R”) • 20 aminoglycoside-resistant isolates (e.g. “AMK-R”) • 15 colistin-resistant isolates. (e.g. “COL-R”)
Minimum inhibitory concentration (MIC) endpoints were determined by broth microdilution according to CLSI guidelines (CLSI, M7-A8 & M100-S22, 2012). Panels were prepared at IHMA using cation-adjusted Mueller-Hinton broth. Colonies were taken directly from a second-pass culture plate and prepared to a suspension equivalent of the 0.5 McFarland standard using normal saline.
Testing was carried out as described in the General Procedures to determine minimum inhibitory concentration (MIC) end points for compound (I), amikacin, colistin, gentamicin, meropenem and tobramycin, for 77 A. baumannii isolates. Under the “MIC (μg/ml)” heading, the first column (Range) indicates the MIC end points for the particular number (N) of isolates tested, the second column (50%) provides an estimate of the concentration that inhibits 50% (MIC50) of bacterial isolates tested, and the third column (90%) provides an estimate of the concentration that inhibits 90% of the bacterial isolates tested.

A. baumannii isolates [2] = experiment: Time kill study (Example 4); format: cell-based, Acinetobacter baumannii; details: for MIC: Acinetobacter baumannii, read-out: MIC; for Time to kill 99.9%: alone
Description: A total of 12 isolates were tested (three per sub-group either susceptible, meropenem-resistant, amikacin-resistant or colistin-resistant). Two combinations were tested per isolate. Time-kill kinetics were performed by testing compound (I) and an additional antibacterial agent (amikacin, colistin and meropenem) individually at 1× and 4× the corresponding MIC of each antibacterial agent. […] Samples were taken at 0, 2, 4, 8 and 24 hours in order to determine colony forming units (CFU/mL).
Time-kill studies were carried out as described in General Procedures using combinations of compound (I) with amikacin, meropenem and colistin, respectively.

A. baumannii SAN strain = experiment: Bactericidal activity (time kill kinetics, Example 5); format: cell-based, Acinetobacter baumannii; details: alone at 2×MIC
Description: In addition, a second set of experiments involved the testing of compound(I)/additional antibacterial agent combinations of 2×/2×MIC. Samples were taken at 0, 3, 6 and 24 hours in order to determine colony forming units (CFU/mL).

A. baumannii SAN-94040 = experiment: Mouse model of A. baumannii pneumonia, Study 1: survival; format: in vivo, Acinetobacter baumannii
Description: The bacterial inoculum was prepared in order to obtain a suspension containing 10^8 CFU/mL of Acinetobacter baumannii in saline.
Experimentations were performed with six-week old female C3H/HeN mice (18-20 g, Breeding Centre JANVIER (Ile saint Genest Mayenne 53)) because of their particular susceptibility to Acinetobacter baumannii and the reproducibility of the results (inbreeding in the breed). Each mouse was individually marked and housed in cages containing five animals/cage under ventilated and controlled (temperature and humidity) atmosphere.
The mice were rendered transiently neutropenic by 2 intra-peritoneal (IP) injections of 150 μL of cyclophosphamide (Endoxan® 150 mg/kg) 4 (D-4) and 3 (D-3) days before the Acinetobacter baumannii inoculation (Day 0). This transient immunosuppression was sufficient to facilitate the development of the A. baumannii pneumonia while allowing the recovery of the neutrophil influx 2 (Day 2) days after inoculation in order to avoid or limit a systemic bacterial dissemination.
Mice were anesthetized by a mixture of oxygen and isoflurane. The bacterial inoculation was performed on Day 0 by intra-tracheal installation using an endotracheal catheter (50 μl of the suspension, thus 5.106 CFU). The positioning of the catheter in the trachea (instead of in the oesophagus) was checked by a “ring test”. The bacterial count in lungs was checked for all study groups by sacrificing one mouse immediately after inoculation.
Survival observations were assessed twice daily, up to 4 days post infection. The survival rates were compared with the Chi-square test or the Fisher exact test as appropriate. The survival curves were compared by the Kaplan-Meier method.
The aim of this experiment was to assess the […], with compound (I) via intra-peritoneal route at 200 mg/kg 3 times daily (every 8 hours) for 1 day alone and in combination with meropenem at 50 mg/kg 3 times daily (every 8 hours) for 1 day or with amikacin at 18 mg/kg 3 times daily (every 8 hours) for 1 day.

[3] = Amikacin-resistant isolates, N=20
[4] = Colistin-resistant isolates, N=15
[5] = Meropenem-resistant isolates, N=20
[6] = Study 1, 24 h after infection, doses as E210
[7] = Study 1, 48 h after infection, doses as E210

SMILES: NCC[C@H](O)C(=O)N[C@@H]1C[C@H](N)[C@@H](O[C@H]2O[C@H](CN)[C@@H](O)[C@H](O)[C@H]2O)[C@H](O)[C@H]1O[C@H]1O[C@H](CO)[C@@H](O)[C@H](N)[C@H]1O [amikacin]
- MIC50 (A. baumannii isolates [1]; All isolates, N=77): 8 µg/mL (≈ 13.7 µM)
- MIC90 (A. baumannii isolates [1]; All isolates, N=77): > 128 µg/mL
- MIC50 (A. baumannii isolates [1]; [3]): > 128 µg/mL
- MIC90 (A. baumannii isolates [1]; [3]): > 128 µg/mL
- MIC50 (A. baumannii isolates [1]; [4]): 64 µg/mL (≈ 109 µM)
- MIC90 (A. baumannii isolates [1]; [4]): > 128 µg/mL
- MIC50 (A. baumannii isolates [1]; [5]): 8 µg/mL (≈ 13.7 µM)
- MIC90 (A. baumannii isolates [1]; [5]): 128 µg/mL (≈ 219 µM)
- MIC50 (A. baumannii isolates [1]; Susceptible isolates, N=22): 4 µg/mL (≈ 6.83 µM)
- MIC90 (A. baumannii isolates [1]; Susceptible isolates, N=22): 8 µg/mL (≈ 13.7 µM)
- MIC Range (A. baumannii isolates [1]; Susceptible isolates, N=22): 0.25 to 8 µg/mL
- MIC (A. baumannii isolates [2]; isolate MPM-R-1): 4 µg/mL
- MIC (A. baumannii isolates [2]; isolate MPM-R-2): 8 µg/mL
- MIC (A. baumannii isolates [2]; isolate MPM-R-3): 4 µg/mL
- MIC (A. baumannii isolates [2]; isolate Sus-1): 2 µg/mL
- MIC (A. baumannii isolates [2]; isolate Sus-2): 4 µg/mL
- MIC (A. baumannii isolates [2]; isolate Sus-3): 4 µg/mL
- Time to kill 99.9% (A. baumannii isolates [2]; MPM-R-1, 1xMIC): 1.4 h
- Time to kill 99.9% (A. baumannii isolates [2]; MPM-R-1, 4xMIC): 1.2 h
- Time to kill 99.9% (A. baumannii isolates [2]; MPM-R-2, 1xMIC): 1.3 h
- Time to kill 99.9% (A. baumannii isolates [2]; MPM-R-2, 4xMIC): 1.2 h
- Time to kill 99.9% (A. baumannii isolates [2]; MPM-R-3, 1xMIC): 1.4 h
- Time to kill 99.9% (A. baumannii isolates [2]; MPM-R-3, 4xMIC): 1.2 h
- Time to kill 99.9% (A. baumannii isolates [2]; Sus-1, 1xMIC): 1.7 h
- Time to kill 99.9% (A. baumannii isolates [2]; Sus-1, 4xMIC): 1.2 h
- Time to kill 99.9% (A. baumannii isolates [2]; Sus-2, 4xMIC): 1.2 h
- Time to kill 99.9% (A. baumannii isolates [2]; Sus-3, 1xMIC): 1.3 h
- Time to kill 99.9% (A. baumannii isolates [2]; Sus-3, 4xMIC): 1.3 h
- effect in time-kill studies when tested alone (A. baumannii isolates [2]; alone at 1× or 4×MIC): generally bactericidal
- effect in time-kill study when tested alone (A. baumannii SAN strain): bactericidal
- survivors (%) (A. baumannii SAN-94040; Study 1, 0 h after infection, doses as E210): 100%
- No. of survivors (A. baumannii SAN-94040; [6]): 12
- survivors (%) (A. baumannii SAN-94040; [6]): 86%
- No. of survivors (A. baumannii SAN-94040; [7]): 1
- survivors (%) (A. baumannii SAN-94040; [7]): 17%
- No. of survivors (A. baumannii SAN-94040; Study 1, 72 h after infection, doses as E210): 0
- No. of survivors (A. baumannii SAN-94040; Study 1, 96 h after infection, doses as E210): 0
- No. of survivors (A. baumannii SAN-94040; Study 1, C3H/HeN mice, 0 h after SAN-94040 infection, compound (I) 200 mg/kg, amikacin 18 mg/kg, meropenem 50 mg/kg q 8 h I.P.): 14
